Laboratory results as given in patent publication US10568918B2, “Composition comprising chlorella extract for preventing or treating liver disease” (GANGNEUNG-WONGJU NATIONAL UNIVERSITY INDUSTRY ACADEMY …, priority 2011, dated 2020).
Values joined by “and” are separate entries in the source; they are usually repeats but may differ in a detail not shown here. Equal entries are not always repeated.

Tests used:
[1] = tested on: liver injury-induced animal models; test: SOD, CAT, GPx, ADH and ALDH activities in liver cytosol of ethanol liver-injured animal model; format: in vivo, SD rats; settings: 10 mg/kg in feed, 10 days
Procedure: After inspection and adaptation for 1 week, healthy animals without weight loss were selected and used for the test. Test animals were bred under a condition of temperature: 23±3, relative humidity: 50±10%, air change rate: 10-15 times/hour, lighting time: 12 hours (08:00-20:00) and luminous intensity: 150-300 Lux. During adaptation period of 1 week, the test animals were freely fed with solid feed for test animal (Superfeed Co., Ltd., Wonju, South Korea) and drinking water. After the adaptation period of 1 week, healthy animals were selected, and divided to 5 groups by randomized block design. […] Test feeds were prepared by mixing each test compounds to the feed to the daily feeding amount of 50 or 100 mg per 1 kg of test animal weight as described above, and fed. […] The feed intake was measured every two days, and body weight was measured every week from the day of starting the oral administration of ethanol (0 day) to the final day of the experiment.
1 g liver tissue was homogenized with 0.25 M sucrose (pH 7.0). […] The activities of superoxide dismutase (SOD), catalase (CAT) and glutathione peroxidase (GPx) were measured using a kit of Cayman chemical company (Ann Arbor, Mich., USA). The activity of alcohol dehydrogenase (ADH) was measured by adding 0.2 M ethanol 10 μl, 0.05 M semicarbazide HCl 10 μl and 0.1 M NAD (in 0.01 M HCl) 10 μl to 0.1 M Tris-HCl buffer (pH 8.5) 160 μl followed by adding the cytosolic zymogen 10 μl thereto at 340 nm. […] The activity of acetaldehyde dehydrogenase (ALDH) was measured by adding 1 M KCl 10 μl, 0.1 M pyrazole 10 μl, 1 M 2-mercaptoethanol 10 μl, 0.1 M propione aldehyde 10 μl and 0.1 M NAD (in 0.01 M HCl) 10 μl to 0.2 M Tris-HCl buffer (pH 8.3) 150 μl followed by adding the cytosolic zymogen 10 μl at 340 nm, and the enzyme protein assay was conducted by a method of Lowry et al. (Lowry O H et al., 1957, J Biol Chem 193: 265-276).

[2] = tested on: liver injury-induced animal models; test: ALT, AST, γ-GT and LDH contents in blood serum of ethanol liver-injured animal model; format: in vivo, SD rats; settings: 10 mg/kg in feed, 10 days
Procedure: The chlorella ethanol extract (CH) was used. The CH was dissolved in ethanol, and mixed with AlN-76 diet to be a daily intake of 50 mg or 100 mg per kg of a test animal weight and supplied to the animal. Specific pathogen free male SD rats of 5-week-old were purchased from Orient Bio Inc. (Seongnam, South Korea). After inspection and adaptation for 1 week, healthy animals without weight loss were selected and used for the test. Test animals were bred under a condition of temperature: 23±3, relative humidity: 50±10%, air change rate: 10-15 times/hour, lighting time: 12 hours (08:00-20:00) and luminous intensity: 150-300 Lux. During adaptation period of 1 week, the test animals were freely fed with solid feed for test animal (Superfeed Co., Ltd., Wonju, South Korea) and drinking water. […] The feed intake was measured every two days, and body weight was measured every week from the day of starting the oral administration of ethanol (0 day) to the final day of the experiment. […] To analyze contents of ALT, AST, γ-GT and LDH in a blood serum isolated from the blood collected on the day of the autopsy, alanine aminotransferase (ALT), aspartate aminotransferase (AST), gamma-glutamyl transferase (γ-GT) and lactic dehydrogenase (LDH) were analyzed using a blood biochemistry analyzer (KoneLab 20, Thermo Fisher Scientific, Waltham, […]).

[3] = tested on: liver injury-induced animal models; test: Content of lipid peroxide in liver microsome of ethanol liver-injured animal model; format: in vivo, SD rats; settings: EtOH +, 10 mg/kg, mean ± SEM
Procedure: 1 g Liver tissue was homogenized in 0.25 M sucrose (pH 7.0). […] The content of the lipid peroxide was measured by a lipid peroxide measuring kit (BioAssay Systems, Hayward, Calif., USA), and the protein quantification was conducted by a method of Lowry et al. (Lowry O H et al., 1957, J Biol Chem 193: 265-276).

[4] = tested on: liver injury-induced animal models; test: Contents of total lipid, triglyceride and total cholesterol in liver tissue of ethanol liver-injured animal model; format: in vivo, SD rats; settings: 10 mg/kg
Procedure: Specific pathogen free male SD rats of 5-week-old were purchased from Orient Bio Inc. (Seongnam, South Korea). After inspection and adaptation for 1 week, healthy animals without weight loss were selected and used for the test. Test animals were bred under a condition of temperature: 23±3, relative humidity: 50±10%, air change rate: 10-15 times/hour, lighting time: 12 hours (08:00-20:00) and luminous intensity: 150-300 Lux. During adaptation period of 1 week, the test animals were freely fed with solid feed for test animal (Superfeed Co., Ltd., Wonju, South Korea) and drinking water. After the adaptation period of 1 week, healthy animals were selected, and divided to 5 groups by randomized block design. […] Test feeds were prepared by mixing each test compounds to the feed to the daily feeding amount of 50 or 100 mg per 1 kg of test animal weight as described above, and fed. In order to induce the fatty liver by ethanol, 20% ethyl alcohol 5 g per kg (body weight) was orally administered twice a day (morning and afternoon) for 16 days. The feeds containing the test compounds were fed for 10 days after 17th day of the ethanol administration, and the ethanol was orally administered together with the feed continuously. During the test period, drinking water was freely supplied. The feed intake was measured every two days, and body weight was measured every week from the day of starting the oral administration of ethanol (0 day) to the final day of the experiment.
Total lipid content in the liver tissue was analyzed by homogenizing 1 g liver tissue in a saline 3 ml followed by homogenizing again with CM solution (Chloroform:Methanol=2:1) 9 ml. The homogenate was centrifuged at 3,000 rpm for 10 min, and the lower layer was collected and evaporated followed by measuring the total lipid content using a precision scale. The measured total lipid was dissolved in isopropanol, and the triglyceride content and the total choresterol content were measured by a quantitative analysis kit using an enzyme method (Asan Pharm. Co., Ltd., Hwaseong, South Korea).

[5] = tested on: liver injury-induced animal models; test: Contents of triglyceride, total cholesterol and HDL-cholesterol in blood serum of ethanol liver-injured animal model; format: in vivo, SD rats; settings: EtOH +, 10 mg/kg, mean ± SEM
Procedure: The chlorella ethanol extract (CH) was used. The CH was dissolved in ethanol, and mixed with AlN-76 diet to be a daily intake of 50 mg or 100 mg per kg of a test animal weight and supplied to the animal. Specific pathogen free male SD rats of 5-week-old were purchased from Orient Bio Inc. (Seongnam, South Korea). After inspection and adaptation for 1 week, healthy animals without weight loss were selected and used for the test. Test animals were bred under a condition of temperature: 23±3, relative humidity: 50±10%, air change rate: 10-15 times/hour, lighting time: 12 hours (08:00-20:00) and luminous intensity: 150-300 Lux. During adaptation period of 1 week, the test animals were freely fed with solid feed for test animal (Superfeed Co., Ltd., Wonju, South Korea) and drinking water. After the adaptation period of 1 week, healthy animals were selected, and divided to 5 groups by randomized block design. Namely, those were divided into a control group not treated with ethanol and the test material, a group orally administered with ethanol, a group orally administered with ethanol and fed with CH 50 mg/kg, a group orally administered with ethanol and fed with CH 100 mg/kg and a group orally administered with ethanol and fed with sulforaphane 10 mg/kg. The primary feed used in this experiment, AlN-76 was purchased from Research Diets, Inc. (New Brunswick, N.J., USA), and its composition is listed in Table 1. Test feeds were prepared by mixing each test compounds to the feed to the daily feeding amount of 50 or 100 mg per 1 kg of test animal weight as described above, and fed. […] The feeds containing the test compounds were fed for 10 days after 17th day of the ethanol administration, and the ethanol was orally administered together with the feed continuously. During the test period, drinking water was freely supplied. The feed intake was measured every two days, and body weight was measured every week from the day of starting the oral administration of ethanol (0 day) to the final day of the experiment. […]

quinone reductase = test: Quinone reductase activity induction in Hepa1c1c7 liver cancer cells; format: cell-based, white rat; settings: sulforaphane at 5 μM, 5 × 10^3 cell/wells
Procedure: For the ethanol extract and the ingredients of the isolated fractions, the quinone reductase activity induction was analyzed. In order to measure the quinone reductase activity induction effect of the fractions obtained from the chlorella, the experiment was conducted using a liver cancer cell line (Hepa1c1c7) of a white rat.
First of all, a-MEM (minimum essential medium)/10% FBS (fetal bovine serum) solution was mixed with a liver cell culture solution to make the cell number of 1×10^5 cells/Ml, and the resulting solution 100 μl was added to a 96-well plate followed by incubating for 24 hours under a condition of 5% CO2 and 37° C. […]
The protein solution 50 μl and reaction solution A (49 Ml 25 mM Tris buffer, 34 mg BSA, 0.34 Ml 1.5% tween-20 solution, 0.34 Ml co-enzyme solution, 100 unit glucose-6-phosphate dehydrogenase, 15 mg MTT, 50 μl 50 mM menadione) 200 μl were mixed together, and the absorbance increasing rate was measure at 610 nm using a microplate reader. The protein amount was measured at 595 nm using Bradford solution. […] The quinone reductase activity of the extract and the fraction was expressed as CD (the concentration of the sample where the quinone reductase activity of the sample-treated cell becomes twice).

[6] = did not show the significant difference

C[S+]([O-])CCCCN=C=S (centres unmarked) [Sulforaphane]
liver cytosol SOD activity vs ethanol administration group [1]: increased | liver cytosol CAT activity vs ethanol administration group [1, 6]: increased | liver cytosol GPx activity vs group orally administered with ethanol [1, 6]: increased | serum γ-GT vs group orally administered with ethanol only [2]: did not show the significant difference | serum LDH content vs group orally administered with ethanol ([2]; with the significant difference): decreased | Lipid peroxide (μM/mg protein) [3]: 2.07 μM/mg protein | total liver cholesterol contents vs group orally administered with ethanol ([4]; showed the significant difference): decreased | Total cholesterol (mg/g liver) ([4]; EtOH +, mean ± SEM): 4.39 mg/g liver | Total lipid (mg/g liver) ([4]; EtOH +, mean ± SEM): 48.26 mg/g liver | Triglyceride (mg/g liver) ([4]; EtOH +, mean ± SEM): 13.28 mg/g liver | HDL-cholesterol [5]: 33.39 mg/dL | Total cholesterol [5]: 94.25 mg/dL | Triglyceride [5]: 126.11 mg/dL | CD (concentration of the sample where the quinone reductase activity of the sample-treated cell becomes twice) (quinone reductase): 1.94 µg/mL and 2.48 µg/mL and 2.07 µg/mL
